Test results reported in PubChem BioAssay AID2060611 (Molecular Pharmacology Branch, DTP, NCI, 2025).
pIC50: −log10 of the molar value. “And” between values parts separate entries of the source, which are not always exact repeats. Equal values may be shown once.

Tested on: 628569-122-R-J1-PDC complex spheroid viability
Assay: Anticancer human tumor 628569-122-R-J1-PDC patient-derived head and neck squamous carcinoma cell line growth inhibition [CLK]
Conditions: for viability, T/C: stronger effect = lower value; active means viability on the fitted dose curve at most 10% of control; inactive means the rest
Excerpt: A high-throughput screen of multi-cell type tumor spheroids was designed to identify active combinations of […] and targeted small molecules. Complex spheroids include a stromal component modeled by human endothelial cells (HUVEC) and fibroblasts modeled by human mesenchymal stem cells (MSCs). The concentration ranges selected for each drug and investigational agent were based upon clinically achievable concentrations if the clinical Cmax of the agent was known.
Compounds. The drugs and investigational agents: cirtuvivint (SM08502; NSC835563), CC-671 (NSC850746), vemurafenib (NSC761431), tapotoclax (NSC804041), sotorasib (NSC818433), adagrasib (NSC831453), MRTX-1133 (NSC836407), BAY2416964 (NSC825713), copanlisib (NSC816437), inavolisib (NSC800729), abemaciclib (NSC768073), osimertinib (NSC779217), entinostat (NSC756642), eltanexor (KPT-8602, NSC794443), venetoclax (NSC766270), ceralasertib (NSC777638), bortezomib (NSC756655), olaparib (NSC753686), talazoparib (NSC767125), alisertib (NSC759677), peposertib (NSC802822), gemcitabine (NSC613327), 5-fluorouracil (NSC19893), SN-38 (NSC673596), oxaliplatin (NSC266046), paclitaxel (NSC125973), and doxorubicin (NSC123127), were obtained from the National Cancer Institute (NCI) Developmental Therapeutics Program Chemical Repository. The FDA-approved anticancer drug set is available from the Developmental Therapeutics Program at https://dtp.cancer.gov/organization/dscb/obtaining/available plates.htm. […] The stock solutions were prepared in dimethyl sulfoxide (DMSO, Sigma-Aldrich, St. Louis, MO, cat. D2650), except for the platinum complexes which were prepared in saline (Quality Biological, Gaithersburg, MD, cat. 114-055-101), at 800-fold the tested concentration and stored at -70 degrees C prior to their use. All drugs and investigational agents were tested over a range starting from a high concentration at or near the clinical Cmax and decreasing in half-log increments. If the clinical Cmax for an agent had not been determined, the highest concentration tested was 10 microM.
Cell Culture. All cells were maintained in an incubator at 37 degrees C and 5% CO2 with 95% humidity. The PDC lines were cultured according to standard operating procedures established by the NCI PDMR. Briefly, all PDCs were thawed and cultured in Matrigel-coated flasks prepared with a working solution of 1X Ham's F-12 nutrient mix, without supplementation (Invitrogen, Waltham, MA, cat. 11765054), 100 U/mL penicillin-streptomycin (Invitrogen, cat. 15140122), and 2.5% Matrigel (Corning Inc., Corning, NY, cat. 354248) for the first three passages. The 947758-054-R-J2-PDC line was cultured in 6B/Colon 1A media, which includes advanced DMEM/F-12 (Thermo Fisher Scientific, cat. 12634028), 10 mM HEPES (Thermo Fisher Scientific, cat. 15630080), 1X GlutaMAX supplement (Thermo Fisher Scientific, cat. 35050061), 0.1 mg/mL primocin (InvivoGen, cat. ant-pm-2), 10% defined fetal bovine serum, heat inactivated (HyClone Laboratories Inc., cat. SH30070.03HI), 1.25 mM N-Acetyl-L-cysteine (Sigma-Aldrich, cat. A9165), 10 mM nicotinamide (Sigma-Aldrich, cat. N0636), 1X B-27 supplement (Thermo Fisher Scientific, cat. 17504044), 1X N-2 supplement (Thermo Fisher Scientific, cat. 17502048), and 10 microM Y-27632 dihydrochloride (Tocris Bioscience, cat. 1254). The 876862-298-R-J1-PDC was cultured in 6E media, which includes all 6B/Colon 1A media components plus 50% L-WRN conditioned media (ATCC, cat. CRL-3276), 50 ng/mL recombinant human EGF recombinant protein (hEGF; Thermo Fisher Scientific, cat. PHG0311), 10 ng/mL recombinant human fibroblast growth factor 10 (hGFG-10; PeproTech, cat. 100-26), 1 ng/mL recombinant human fibroblast growth factor 2 (hFGF-2; PeproTech, cat. 100-18B), and 1 µM prostaglandin E2 (PGE2; Tocris, cat. 2296). The 227483-062-R1-J1-PDC line was cultured in Panc media, containing all 6E components except hFGF-2, with the addition of 500 nM SB-431542 (Selleckchem, cat. S1067) and 10 nM gastrin (Tocris, cat. 3006). […]

[1] = curve of first compound, second compound 0.0316 µM
[2] = curve of first compound, second compound 0.1 µM
[3] = curve of first compound, second compound 0.316 µM
[4] = curve of first compound, second compound 1 µM
[5] = curve of first compound, second compound 3.16 µM
[6] = curve of first compound, second compound 10 µM
[7] = second compound 0.0316 µM, first compound 0.0316 µM
[8] = second compound 0.0316 µM, first compound 0.1 µM
[9] = second compound 0.0316 µM, first compound 0.316 µM
[10] = second compound 0.0316 µM, first compound 1 µM
[11] = second compound 0.0316 µM, first compound 3.16 µM
[12] = second compound 0.0316 µM, first compound 10 µM
[13] = second compound 0.1 µM, first compound 0.0316 µM
[14] = second compound 0.1 µM, first compound 0.1 µM
[15] = second compound 0.1 µM, first compound 0.316 µM
[16] = second compound 0.1 µM, first compound 1 µM
[17] = second compound 0.1 µM, first compound 3.16 µM
[18] = second compound 0.1 µM, first compound 10 µM
[19] = second compound 0.316 µM, first compound 0.0316 µM
[20] = second compound 0.316 µM, first compound 0.1 µM
[21] = second compound 0.316 µM, first compound 0.316 µM
[22] = second compound 0.316 µM, first compound 1 µM
[23] = second compound 0.316 µM, first compound 3.16 µM
[24] = second compound 0.316 µM, first compound 10 µM
[25] = second compound 1 µM, first compound 0.0316 µM
[26] = second compound 1 µM, first compound 0.1 µM
[27] = second compound 1 µM, first compound 0.316 µM
[28] = second compound 1 µM, first compound 1 µM
[29] = second compound 1 µM, first compound 3.16 µM
[30] = second compound 1 µM, first compound 10 µM
[31] = second compound 3.16 µM, first compound 0.0316 µM
[32] = second compound 3.16 µM, first compound 0.1 µM
[33] = second compound 3.16 µM, first compound 0.316 µM
[34] = second compound 3.16 µM, first compound 1 µM
[35] = second compound 3.16 µM, first compound 3.16 µM
[36] = second compound 3.16 µM, first compound 10 µM
[37] = second compound 10 µM, first compound 0.0316 µM
[38] = second compound 10 µM, first compound 0.1 µM
[39] = second compound 10 µM, first compound 0.316 µM
[40] = second compound 10 µM, first compound 1 µM
[41] = second compound 10 µM, first compound 3.16 µM
[42] = second compound 10 µM, first compound 10 µM
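Further: spheroids exposed to agents for seven days before readout.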

CCCS(=O)(=O)Nc1ccc(F)c(C(=O)c2c[nH]c3ncc(-c4ccc(Cl)cc4)cc23)c1F
< 5.00: pIC50 (curve of compound)
inactive: viability, T/C (compound 0.0316 µM) 107% and 87% | viability, T/C (compound 0.1 µM) 88.2% and 74.5% | viability, T/C (compound 0.316 µM) 94.3% and 70.7% | viability, T/C (compound 1 µM) 108% and 71.2% | viability, T/C (compound 3.16 µM) 104% and 77.5% | viability, T/C (compound 10 µM) 83.7% and 70.3%

Nc1ccn(C2OC(CO)C(O)C2(F)F)c(=O)n1 (stereo not given) + CNC(=O)c1ccc(Nc2nc(OC3CCCC3)c3c(-c4ccc5nc(C)oc5c4)c[nH]c3n2)c(OC)c1
inactive: viability, T/C [7] 65.9% | viability, T/C [8] 51.8% | viability, T/C [9] 50.4% | viability, T/C [10] 40.7% | viability, T/C [11] 50.8% | viability, T/C [12] 51.8% | viability, T/C [13] 53.1% | viability, T/C [14] 52.3% | viability, T/C [15] 49.5% | viability, T/C [16] 43.9% | viability, T/C [17] 57.2% | viability, T/C [18] 49.3% | viability, T/C [19] 49.9% | viability, T/C [20] 50.3% | viability, T/C [21] 50.5% | viability, T/C [22] 40.6% | viability, T/C [23] 47.3% | viability, T/C [24] 51.8% | viability, T/C [25] 43.2% | viability, T/C [26] 47% | viability, T/C [27] 42.1% | viability, T/C [28] 35.8% | viability, T/C [29] 32.8% | viability, T/C [30] 45.6% | viability, T/C [31] 45% | viability, T/C [32] 43.6% | viability, T/C [33] 38.2% | viability, T/C [34] 33.5% | viability, T/C [35] 50.3% | viability, T/C [36] 39.5% | viability, T/C [37] 49.3% | viability, T/C [38] 46.1% | viability, T/C [39] 39.5% | viability, T/C [40] 31.3% | viability, T/C [41] 36.6% | viability, T/C [42] 39.8%
6.70: pIC50 [1]
> 7.50: pIC50 [3] | pIC50 [4] | pIC50 [5] | pIC50 [6]
< 5.00: pIC50 [2]

O=C(c1cc(Cc2n[nH]c(=O)c3ccccc23)ccc1F)N1CCN(C(=O)C2CC2)CC1 + CNC(=O)c1ccc(Nc2nc(OC3CCCC3)c3c(-c4ccc5nc(C)oc5c4)c[nH]c3n2)c(OC)c1
5.70: pIC50 [3]
< 5.00: pIC50 [1] | pIC50 [2]
inactive: viability, T/C [7] 99.7% | viability, T/C [8] 105% | viability, T/C [9] 102% | viability, T/C [10] 81.9% | viability, T/C [11] 103% | viability, T/C [12] 61.7% | viability, T/C [13] 63.2% | viability, T/C [14] 60% | viability, T/C [15] 60.7% | viability, T/C [16] 59.6% | viability, T/C [17] 62.8% | viability, T/C [18] 41.7% | viability, T/C [19] 50.8% | viability, T/C [20] 55.5% | viability, T/C [21] 56.6% | viability, T/C [22] 51.9% | viability, T/C [23] 47.5% | viability, T/C [24] 39.7% | viability, T/C [25] 39.8% | viability, T/C [26] 49.3% | viability, T/C [27] 47.5% | viability, T/C [28] 47% | viability, T/C [29] 45.2% | viability, T/C [30] 33.2% | viability, T/C [31] 43.7% | viability, T/C [32] 44.4% | viability, T/C [33] 41.8% | viability, T/C [34] 41.2% | viability, T/C [35] 42.5% | viability, T/C [36] 31.5% | viability, T/C [37] 46.6% | viability, T/C [38] 41.8% | viability, T/C [39] 49.3% | viability, T/C [40] 39.1% | viability, T/C [41] 56.1% | viability, T/C [42] 26.5%
> 7.50: pIC50 [4] | pIC50 [5]
7.50: pIC50 [6]

CC(=O)O[C@H]1C(=O)[C@@]2(C)[C@H]([C@H](OC(=O)c3ccccc3)[C@]3(O)C[C@H](OC(=O)[C@H](O)[C@@H](NC(=O)c4ccccc4)c4ccccc4)C(C)=C1C3(C)C)[C@]1(OC(C)=O)CO[C@@H]1C[C@@H]2O + CNC(=O)c1ccc(Nc2nc(OC3CCCC3)c3c(-c4ccc5nc(C)oc5c4)c[nH]c3n2)c(OC)c1
inactive: viability, T/C [7] 34.6% | viability, T/C [8] 33.5% | viability, T/C [9] 36.6% | viability, T/C [10] 35.9% | viability, T/C [11] 36.5% | viability, T/C [12] 59% | viability, T/C [13] 50.4% | viability, T/C [14] 47.4% | viability, T/C [15] 49.6% | viability, T/C [16] 55.5% | viability, T/C [17] 67.9% | viability, T/C [18] 68.4% | viability, T/C [19] 43.1% | viability, T/C [20] 55.3% | viability, T/C [21] 59.7% | viability, T/C [22] 63.9% | viability, T/C [23] 72.9% | viability, T/C [24] 72.9% | viability, T/C [25] 41.4% | viability, T/C [26] 53% | viability, T/C [27] 55.2% | viability, T/C [28] 57.6% | viability, T/C [29] 57.9% | viability, T/C [30] 68.5% | viability, T/C [31] 44.8% | viability, T/C [32] 51.6% | viability, T/C [33] 56.8% | viability, T/C [34] 56.6% | viability, T/C [35] 60.9% | viability, T/C [36] 64.7% | viability, T/C [37] 41.2% | viability, T/C [38] 47% | viability, T/C [39] 55.3% | viability, T/C [40] 64.2% | viability, T/C [41] 65% | viability, T/C [42] 69.9%
> 7.50: pIC50 [1] | pIC50 [2] | pIC50 [3] | pIC50 [4] | pIC50 [5] | pIC50 [6]

Cn1ncnc1[C@H]1c2n[nH]c(=O)c3cc(F)cc(c23)N[C@@H]1c1ccc(F)cc1
< 7.00: pIC50 (curve of compound)
inactive: viability, T/C (compound 0.000316 µM) 90.7% and 78.8% | viability, T/C (compound 0.001 µM) 96.5% and 103% | viability, T/C (compound 0.00316 µM) 97.3% and 61.4% | viability, T/C (compound 0.01 µM) 89.6% and 93.2% | viability, T/C (compound 0.0316 µM) 67.8% and 81.5% | viability, T/C (compound 0.1 µM) 69.2% and 63.6%
